#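 The compound was tested at five concentrations on cells cultured in 96-well plates, with a 48-hour exposure period. TGI: concentration producing complete growth inhibition.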
# Assays:
# Experiment in all cases: DTP human tumour cell line panel, 48 h
# [1] = system: A498 renal
# [2] = system: A549 NSCLC
# [3] = system: ACHN renal
# [4] = system: CAKI-1 renal
# [5] = system: CCRF-CEM leukemia
# [6] = system: COLO 205 colon
# [7] = system: DU-145 prostate
# [8] = system: EKVX NSCLC
# [9] = system: HCC-2998 colon
# [10] = system: HCT-116 colon
# [11] = system: HCT-15 colon
# [12] = system: HL-60(TB) leukemia
# [13] = system: HOP-62 NSCLC
# [14] = system: HS 578T breast
# [15] = system: HT29 colon
# [16] = system: IGROV1 ovarian
# [17] = system: K-562 leukemia
# [18] = system: KM12 colon
# [19] = system: LOX IMVI melanoma
# [20] = system: M14 melanoma
# [21] = system: MALME-3M melanoma
# [22] = system: MCF7 breast
# [23] = system: MDA-MB-231 breast
# [24] = system: MDA-MB-435
# [25] = system: MDA-N
# [26] = system: MOLT-4 leukemia
# [27] = system: NCI-H226 lung
# [28] = system: NCI-H23 lung
# [29] = system: NCI-H460 lung
# [30] = system: NCI-H522 lung
# [31] = system: NCI/ADR-RES ovarian
# [32] = system: OVCAR-3 ovarian
# [33] = system: OVCAR-4 ovarian
# [34] = system: OVCAR-5 ovarian
# [35] = system: OVCAR-8 ovarian
# [36] = system: PC-3 prostate
# [37] = system: RPMI-8226 leukemia
# [38] = system: RXF 393 renal
# [39] = system: SF-268 CNS
# [40] = system: SF-295 CNS
# [41] = system: SF-539 CNS
# [42] = system: SK-MEL-2 melanoma
# [43] = system: SK-MEL-28 melanoma
# [44] = system: SK-MEL-5 melanoma
# [45] = system: SK-OV-3 ovarian
# [46] = system: SNB-19 CNS
# [47] = system: SNB-75 CNS
# [48] = system: SR leukemia
# [49] = system: SW-620 colon
# [50] = system: T-47D breast
# [51] = system: TK-10 renal
# [52] = system: U251 CNS
# [53] = system: UACC-62 melanoma
# [54] = system: UO-31 renal
# [55] = system: 786-0 renal
# [56] = system: BT-549 breast
# [57] = system: HOP-92 NSCLC
# [58] = system: SN12C renal
# [59] = system: UACC-257 melanoma
smiles,measurement,setting,value
c1ccc2c(CCNC3=NCCO3)cccc2c1,TGI,[1],> 10 µM
same,TGI,[2],> 10 µM
same,TGI,[3],> 10 µM
same,TGI,[4],> 10 µM
same,TGI,[5],> 10 µM
same,TGI,[6],> 10 µM
same,TGI,[7],> 10 µM
same,TGI,[8],> 10 µM
same,TGI,[9],> 10 µM
same,TGI,[10],> 10 µM
same,TGI,[11],> 10 µM
same,TGI,[12],> 10 µM
same,TGI,[13],> 10 µM
same,TGI,[14],> 10 µM
same,TGI,[15],> 10 µM
same,TGI,[16],> 10 µM
same,TGI,[17],> 10 µM
same,TGI,[18],> 10 µM
same,TGI,[19],> 10 µM
same,TGI,[20],> 10 µM
same,TGI,[21],> 10 µM
same,TGI,[22],> 10 µM
same,TGI,[23],> 10 µM
same,TGI,[24],> 10 µM
same,TGI,[25],> 10 µM
same,TGI,[26],> 10 µM
same,TGI,[27],> 10 µM
same,TGI,[28],> 10 µM
same,TGI,[29],> 10 µM
same,TGI,[30],> 10 µM
same,TGI,[31],> 10 µM
same,TGI,[32],> 10 µM
same,TGI,[33],> 10 µM
same,TGI,[34],> 10 µM
same,TGI,[35],> 10 µM
same,TGI,[36],> 10 µM
same,TGI,[37],> 10 µM
same,TGI,[38],> 10 µM
same,TGI,[39],> 10 µM
same,TGI,[40],> 10 µM
same,TGI,[41],> 10 µM
same,TGI,[42],> 10 µM
same,TGI,[43],> 10 µM
same,TGI,[44],> 10 µM
same,TGI,[45],> 10 µM
same,TGI,[46],> 10 µM
same,TGI,[47],> 10 µM
same,TGI,[48],> 10 µM
same,TGI,[49],> 10 µM
same,TGI,[50],> 10 µM
same,TGI,[51],> 10 µM
same,TGI,[52],> 10 µM
same,TGI,[53],> 10 µM
same,TGI,[54],> 10 µM
CC1(C)C(=O)C2(N)CCC1C2 (stereo not drawn),TGI,[55],> 100 µM
same,TGI,[3],> 100 µM
same,TGI,[56],> 100 µM
same,TGI,[4],> 100 µM
same,TGI,[5],> 100 µM
same,TGI,[6],> 100 µM
same,TGI,[7],> 100 µM
same,TGI,[9],> 100 µM
same,TGI,[10],> 100 µM
same,TGI,[11],> 100 µM
same,TGI,[57],> 100 µM
same,TGI,[18],> 100 µM
same,TGI,[19],> 100 µM
same,TGI,[23],> 100 µM
same,TGI,[24],> 100 µM
same,TGI,[25],> 100 µM
same,TGI,[27],> 100 µM
same,TGI,[28],> 100 µM
same,TGI,[29],> 100 µM
same,TGI,[31],> 100 µM
same,TGI,[33],> 100 µM
same,TGI,[35],> 100 µM
same,TGI,[37],> 100 µM
same,TGI,[39],> 100 µM
same,TGI,[43],> 100 µM
same,TGI,[58],> 100 µM
same,TGI,[46],> 100 µM
same,TGI,[47],> 100 µM
same,TGI,[48],> 100 µM
same,TGI,[50],> 100 µM
same,TGI,[51],> 100 µM
same,TGI,[52],> 100 µM
same,TGI,[59],> 100 µM
same,TGI,[53],> 100 µM
same,TGI,[54],> 100 µM
CC(C)[Si](CC1=CCCCC12C(=O)N(COCC[Si](C)(C)C)c1ccccc12)(C(C)C)C(C)C (stereo not drawn),TGI,[55],> 100 µM
same,TGI,[1],> 100 µM
same,TGI,[2],> 100 µM
same,TGI,[3],> 100 µM
same,TGI,[4],> 100 µM
same,TGI,[5],36.6 µM
same,TGI,[6],> 100 µM
same,TGI,[7],> 100 µM
same,TGI,[8],> 100 µM
same,TGI,[9],> 100 µM
same,TGI,[11],> 100 µM
same,TGI,[13],> 100 µM
same,TGI,[57],> 100 µM
same,TGI,[14],> 100 µM
same,TGI,[15],> 100 µM
same,TGI,[16],> 100 µM
same,TGI,[17],> 100 µM
same,TGI,[18],> 100 µM
same,TGI,[19],> 100 µM
same,TGI,[20],> 100 µM
same,TGI,[21],> 100 µM
same,TGI,[22],> 100 µM
same,TGI,[23],> 100 µM
same,TGI,[24],> 100 µM
same,TGI,[25],> 100 µM
same,TGI,[26],> 100 µM
same,TGI,[27],> 100 µM
same,TGI,[28],> 100 µM
same,TGI,[29],> 100 µM
same,TGI,[30],> 100 µM
same,TGI,[31],> 100 µM
same,TGI,[32],> 100 µM
same,TGI,[33],> 100 µM
same,TGI,[34],80.9 µM
same,TGI,[35],> 100 µM
same,TGI,[36],> 100 µM
same,TGI,[37],> 100 µM
same,TGI,[38],54.2 µM
same,TGI,[39],> 100 µM
same,TGI,[40],> 100 µM
same,TGI,[41],> 100 µM
same,TGI,[42],> 100 µM
same,TGI,[43],> 100 µM
same,TGI,[44],> 100 µM
same,TGI,[45],> 100 µM
same,TGI,[46],> 100 µM
same,TGI,[47],> 100 µM
same,TGI,[48],> 100 µM
same,TGI,[49],> 100 µM
same,TGI,[50],96.9 µM
same,TGI,[51],> 100 µM
same,TGI,[52],> 100 µM
same,TGI,[59],> 100 µM
same,TGI,[53],> 100 µM
same,TGI,[54],> 100 µM
Cc1cc(NS(=O)(=O)c2ccc(N=Nc3c(Nc4ccccc4)nn(-c4ccc(S(=O)(=O)Nc5ccncn5)cc4)c3C)cc2)no1,TGI,[55],> 100 µM
same,TGI,[2],> 100 µM
same,TGI,[3],> 100 µM
same,TGI,[4],> 100 µM
same,TGI,[5],> 100 µM
same,TGI,[6],> 100 µM
same,TGI,[7],> 100 µM
same,TGI,[8],> 100 µM
same,TGI,[9],> 100 µM
same,TGI,[10],> 100 µM
same,TGI,[11],> 100 µM
same,TGI,[13],> 100 µM
same,TGI,[57],> 100 µM
same,TGI,[15],> 100 µM
same,TGI,[16],> 100 µM
same,TGI,[17],> 100 µM
same,TGI,[18],> 100 µM
same,TGI,[19],> 100 µM
same,TGI,[20],> 100 µM
same,TGI,[21],> 100 µM
same,TGI,[22],> 100 µM
same,TGI,[23],> 100 µM
same,TGI,[24],> 100 µM
same,TGI,[25],> 100 µM
same,TGI,[26],> 100 µM
same,TGI,[27],> 100 µM
same,TGI,[28],> 100 µM
same,TGI,[30],> 100 µM
same,TGI,[31],> 100 µM
same,TGI,[32],> 100 µM
same,TGI,[33],> 100 µM
same,TGI,[34],> 100 µM
same,TGI,[35],> 100 µM
same,TGI,[36],> 100 µM
same,TGI,[40],> 100 µM
same,TGI,[41],> 100 µM
same,TGI,[42],> 100 µM
same,TGI,[43],> 100 µM
same,TGI,[44],> 100 µM
same,TGI,[45],> 100 µM
same,TGI,[58],> 100 µM
same,TGI,[46],> 100 µM
same,TGI,[47],> 100 µM
same,TGI,[50],> 100 µM
same,TGI,[51],> 100 µM
same,TGI,[52],> 100 µM
same,TGI,[59],> 100 µM
same,TGI,[53],> 100 µM
same,TGI,[54],> 100 µM
